From patent US10765114B2, “4-amino-6-(pyridyl and 2-substitutedphenyl)-picolinates and 6-amino-2-(pyridyl and 2-substitutedphenyl)-pyrimidine-4-carboxylates and their use as herbicides” (Dow AgroSciences LLC, priority 2013, dated 2020)

Each molecule was assayed on Key Broadleaf Weed and Crop Species (assay: Post-Emergent Test II (Table 5)). Conditions: Abutilon theophrasti, post-emergence, 336 h, ABUTH: velvetleaf (Abutilon theophrasti), application rate 70 (kg ai/ha; footnote: g ai/ha), read-out: Visual Growth Reduction (%) 14 Days After Application ABUTH.
Assay type: in vivo
Procedure, shortened: (§1)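 Post-emergence greenhouse spray, 1st-2nd true leaf stage; track sprayer, 187 L/ha; acetone/DMSO stock diluted in aqueous acetone/IPA/DMSO with Atplus 411F and Triton X-155; rates 1× to 1/16×; subirrigated; visual injury 0 (none) to 100% (complete kill) at 14 days.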

Row | SMILES | pest or weed control at 70 g/ha [%]
1 | C=Cc1c(-c2cc(N)c(Cl)c(C(=O)O)n2)ccc(Cl)c1F [Compound 89, 4-Amino-3-chloro-6-(4-chloro-3-fluoro-2-vinylphenyl)picolinic acid] | 85 to 94

Same assay, conditions: Abutilon theophrasti, post-emergence, 336 h, ABUTH: velvetleaf (Abutilon theophrasti), application rate 140 (kg ai/ha; footnote: g ai/ha), read-out: Visual Growth Reduction (%) 14 Days After Application ABUTH

Row | SMILES | pest or weed control at 140 g/ha [%]
2 | C=Cc1c(-c2cc(N)c(Cl)c(C(=O)O)n2)ccc(Cl)c1F [Compound 89, 4-Amino-3-chloro-6-(4-chloro-3-fluoro-2-vinylphenyl)picolinic acid] | 95 to 100

Same assay, conditions: Amaranthus retroflexus, post-emergence, 336 h, AMARE: redroot pigweed (Amaranthus retroflexus), application rate 70 (kg ai/ha; footnote: g ai/ha), read-out: Visual Growth Reduction (%) 14 Days After Application AMARE

Row | SMILES | pest or weed control at 70 g/ha [%]
3 | C=Cc1c(-c2cc(N)c(Cl)c(C(=O)O)n2)ccc(Cl)c1F [Compound 89, 4-Amino-3-chloro-6-(4-chloro-3-fluoro-2-vinylphenyl)picolinic acid] | 95 to 100

Same assay, conditions: Amaranthus retroflexus, post-emergence, 336 h, AMARE: redroot pigweed (Amaranthus retroflexus), application rate 140 (kg ai/ha; footnote: g ai/ha), read-out: Visual Growth Reduction (%) 14 Days After Application AMARE

Row | SMILES | pest or weed control at 140 g/ha [%]
4 | C=Cc1c(-c2cc(N)c(Cl)c(C(=O)O)n2)ccc(Cl)c1F [Compound 89, 4-Amino-3-chloro-6-(4-chloro-3-fluoro-2-vinylphenyl)picolinic acid] | 95 to 100

Same assay, conditions: Brassica napus, post-emergence, 336 h, BRSSS: oilseed rape, canola (Brassica napus), application rate 70 (kg ai/ha; footnote: g ai/ha), read-out: Visual Growth Reduction (%) 14 Days After Application BRSSS

Row | SMILES | pest or weed control at 70 g/ha [%]
5 | C=Cc1c(-c2cc(N)c(Cl)c(C(=O)O)n2)ccc(Cl)c1F [Compound 89, 4-Amino-3-chloro-6-(4-chloro-3-fluoro-2-vinylphenyl)picolinic acid] | 95 to 100

Same assay, conditions: Brassica napus, post-emergence, 336 h, BRSSS: oilseed rape, canola (Brassica napus), application rate 140 (kg ai/ha; footnote: g ai/ha), read-out: Visual Growth Reduction (%) 14 Days After Application BRSSS

Row | SMILES | pest or weed control at 140 g/ha [%]
6 | C=Cc1c(-c2cc(N)c(Cl)c(C(=O)O)n2)ccc(Cl)c1F [Compound 89, 4-Amino-3-chloro-6-(4-chloro-3-fluoro-2-vinylphenyl)picolinic acid] | 95 to 100

Same assay, conditions: Chenopodium album, post-emergence, 336 h, CHEAL: lambsquarters (Chenopodium album), application rate 70 (kg ai/ha; footnote: g ai/ha), read-out: Visual Growth Reduction (%) 14 Days After Application CHEAL

Row | SMILES | pest or weed control at 70 g/ha [%]
7 | C=Cc1c(-c2cc(N)c(Cl)c(C(=O)O)n2)ccc(Cl)c1F [Compound 89, 4-Amino-3-chloro-6-(4-chloro-3-fluoro-2-vinylphenyl)picolinic acid] | 95 to 100

Same assay, conditions: Chenopodium album, post-emergence, 336 h, CHEAL: lambsquarters (Chenopodium album), application rate 140 (kg ai/ha; footnote: g ai/ha), read-out: Visual Growth Reduction (%) 14 Days After Application CHEAL

Row | SMILES | pest or weed control at 140 g/ha [%]
8 | C=Cc1c(-c2cc(N)c(Cl)c(C(=O)O)n2)ccc(Cl)c1F [Compound 89, 4-Amino-3-chloro-6-(4-chloro-3-fluoro-2-vinylphenyl)picolinic acid] | 95 to 100

Same assay, conditions: Euphorbia heterophylla, post-emergence, 336 h, EPHHL: wild poinsettia (Euphorbia heterophylla), application rate 70 (kg ai/ha; footnote: g ai/ha), read-out: Visual Growth Reduction (%) 14 Days After Application EPHHL

Row | SMILES | pest or weed control at 70 g/ha [%]
9 | C=Cc1c(-c2cc(N)c(Cl)c(C(=O)O)n2)ccc(Cl)c1F [Compound 89, 4-Amino-3-chloro-6-(4-chloro-3-fluoro-2-vinylphenyl)picolinic acid] | 30 to 44

Same assay, conditions: Euphorbia heterophylla, post-emergence, 336 h, EPHHL: wild poinsettia (Euphorbia heterophylla), application rate 140 (kg ai/ha; footnote: g ai/ha), read-out: Visual Growth Reduction (%) 14 Days After Application EPHHL

Row | SMILES | pest or weed control at 140 g/ha [%]
10 | C=Cc1c(-c2cc(N)c(Cl)c(C(=O)O)n2)ccc(Cl)c1F [Compound 89, 4-Amino-3-chloro-6-(4-chloro-3-fluoro-2-vinylphenyl)picolinic acid] | 45 to 59

Same assay, conditions: Helianthus annuus, post-emergence, 336 h, HELAN: sunflower (Helianthus annuus), application rate 70 (kg ai/ha; footnote: g ai/ha), read-out: Visual Growth Reduction (%) 14 Days After Application HELAN

Row | SMILES | pest or weed control at 70 g/ha [%]
11 | C=Cc1c(-c2cc(N)c(Cl)c(C(=O)O)n2)ccc(Cl)c1F [Compound 89, 4-Amino-3-chloro-6-(4-chloro-3-fluoro-2-vinylphenyl)picolinic acid] | 95 to 100

Same assay, conditions: Helianthus annuus, post-emergence, 336 h, HELAN: sunflower (Helianthus annuus), application rate 140 (kg ai/ha; footnote: g ai/ha), read-out: Visual Growth Reduction (%) 14 Days After Application HELAN

Row | SMILES | pest or weed control at 140 g/ha [%]
12 | C=Cc1c(-c2cc(N)c(Cl)c(C(=O)O)n2)ccc(Cl)c1F [Compound 89, 4-Amino-3-chloro-6-(4-chloro-3-fluoro-2-vinylphenyl)picolinic acid] | 95 to 100

Same assay, conditions: Viola tricolor, post-emergence, 336 h, VIOTR: wild pansy (Viola tricolor), application rate 70 (kg ai/ha; footnote: g ai/ha), read-out: Visual Growth Reduction (%) 14 Days After Application VIOTR

Row | SMILES | pest or weed control at 70 g/ha [%]
13 | C=Cc1c(-c2cc(N)c(Cl)c(C(=O)O)n2)ccc(Cl)c1F [Compound 89, 4-Amino-3-chloro-6-(4-chloro-3-fluoro-2-vinylphenyl)picolinic acid] | 45 to 59

Same assay, conditions: Viola tricolor, post-emergence, 336 h, VIOTR: wild pansy (Viola tricolor), application rate 140 (kg ai/ha; footnote: g ai/ha), read-out: Visual Growth Reduction (%) 14 Days After Application VIOTR

Row | SMILES | pest or weed control at 140 g/ha [%]
14 | C=Cc1c(-c2cc(N)c(Cl)c(C(=O)O)n2)ccc(Cl)c1F [Compound 89, 4-Amino-3-chloro-6-(4-chloro-3-fluoro-2-vinylphenyl)picolinic acid] | 60 to 74

These molecules were tested on Key Grass and Sedge Weeds as well as Grass Crops (assay: Post-Emergent Test II (Table 6)). Conditions: post-emergence, 336 h, CYPSS, 70 g ai/ha, 14 days after application, read-out: Visual Growth Reduction (%) 14 Days After Application CYPSS.
Assay type: in vivo
Procedure, shortened: as §1

Row | SMILES | pest or weed control at 70 g/ha [%]
15 | C=Cc1c(-c2cc(N)c(Cl)c(C(=O)O)n2)ccc(Cl)c1F [Compound 89, 4-Amino-3-chloro-6-(4-chloro-3-fluoro-2-vinylphenyl)picolinic acid] | 0 to 29

Same assay, conditions: post-emergence, 336 h, CYPSS, 140 g ai/ha, 14 days after application, read-out: Visual Growth Reduction (%) 14 Days After Application CYPSS

Row | SMILES | pest or weed control at 140 g/ha [%]
16 | C=Cc1c(-c2cc(N)c(Cl)c(C(=O)O)n2)ccc(Cl)c1F [Compound 89, 4-Amino-3-chloro-6-(4-chloro-3-fluoro-2-vinylphenyl)picolinic acid] | 0 to 29

Same assay, conditions: post-emergence, 336 h, DIGSA: crabgrass (Digitaria sanguinalis), 70 g ai/ha, 14 days after application, read-out: Visual Growth Reduction (%) 14 Days After Application DIGSA

Row | SMILES | pest or weed control at 70 g/ha [%]
17 | C=Cc1c(-c2cc(N)c(Cl)c(C(=O)O)n2)ccc(Cl)c1F [Compound 89, 4-Amino-3-chloro-6-(4-chloro-3-fluoro-2-vinylphenyl)picolinic acid] | 30 to 44

Same assay, conditions: post-emergence, 336 h, DIGSA: crabgrass (Digitaria sanguinalis), 140 g ai/ha, 14 days after application, read-out: Visual Growth Reduction (%) 14 Days After Application DIGSA

Row | SMILES | pest or weed control at 140 g/ha [%]
18 | C=Cc1c(-c2cc(N)c(Cl)c(C(=O)O)n2)ccc(Cl)c1F [Compound 89, 4-Amino-3-chloro-6-(4-chloro-3-fluoro-2-vinylphenyl)picolinic acid] | 75 to 84

Same assay, conditions: post-emergence, 336 h, ECHSS, 70 g ai/ha, 14 days after application, read-out: Visual Growth Reduction (%) 14 Days After Application ECHSS

Row | SMILES | pest or weed control at 70 g/ha [%]
19 | C=Cc1c(-c2cc(N)c(Cl)c(C(=O)O)n2)ccc(Cl)c1F [Compound 89, 4-Amino-3-chloro-6-(4-chloro-3-fluoro-2-vinylphenyl)picolinic acid] | 75 to 84

Same assay, conditions: post-emergence, 336 h, ECHSS, 140 g ai/ha, 14 days after application, read-out: Visual Growth Reduction (%) 14 Days After Application ECHSS

Row | SMILES | pest or weed control at 140 g/ha [%]
20 | C=Cc1c(-c2cc(N)c(Cl)c(C(=O)O)n2)ccc(Cl)c1F [Compound 89, 4-Amino-3-chloro-6-(4-chloro-3-fluoro-2-vinylphenyl)picolinic acid] | 85 to 94

Same assay, conditions: post-emergence, 336 h, ORYSS (crop), 70 g ai/ha, 14 days after application, read-out: Visual Growth Reduction (%) 14 Days After Application ORYSS

Row | SMILES | pest or weed control at 70 g/ha [%]
21 | C=Cc1c(-c2cc(N)c(Cl)c(C(=O)O)n2)ccc(Cl)c1F [Compound 89, 4-Amino-3-chloro-6-(4-chloro-3-fluoro-2-vinylphenyl)picolinic acid] | 0 to 29

Same assay, conditions: post-emergence, 336 h, ORYSS (crop), 140 g ai/ha, 14 days after application, read-out: Visual Growth Reduction (%) 14 Days After Application ORYSS

Row | SMILES | pest or weed control at 140 g/ha [%]
22 | C=Cc1c(-c2cc(N)c(Cl)c(C(=O)O)n2)ccc(Cl)c1F [Compound 89, 4-Amino-3-chloro-6-(4-chloro-3-fluoro-2-vinylphenyl)picolinic acid] | 0 to 29

Same assay, conditions: post-emergence, 336 h, SETFA: giant foxtail (Setaria faberi), 70 g ai/ha, 14 days after application, read-out: Visual Growth Reduction (%) 14 Days After Application SETFA

Row | SMILES | pest or weed control at 70 g/ha [%]
23 | C=Cc1c(-c2cc(N)c(Cl)c(C(=O)O)n2)ccc(Cl)c1F [Compound 89, 4-Amino-3-chloro-6-(4-chloro-3-fluoro-2-vinylphenyl)picolinic acid] | 0 to 29

Same assay, conditions: post-emergence, 336 h, SETFA: giant foxtail (Setaria faberi), 140 g ai/ha, 14 days after application, read-out: Visual Growth Reduction (%) 14 Days After Application SETFA

Row | SMILES | pest or weed control at 140 g/ha [%]
24 | C=Cc1c(-c2cc(N)c(Cl)c(C(=O)O)n2)ccc(Cl)c1F [Compound 89, 4-Amino-3-chloro-6-(4-chloro-3-fluoro-2-vinylphenyl)picolinic acid] | 0 to 29

Same assay, conditions: post-emergence, 336 h, SORVU: grain sorghum (Sorghum vulgare), 70 g ai/ha, 14 days after application, read-out: Visual Growth Reduction (%) 14 Days After Application SORVU

Row | SMILES | pest or weed control at 70 g/ha [%]
25 | C=Cc1c(-c2cc(N)c(Cl)c(C(=O)O)n2)ccc(Cl)c1F [Compound 89, 4-Amino-3-chloro-6-(4-chloro-3-fluoro-2-vinylphenyl)picolinic acid] | 0 to 29

Same assay, conditions: post-emergence, 336 h, SORVU: grain sorghum (Sorghum vulgare), 140 g ai/ha, 14 days after application, read-out: Visual Growth Reduction (%) 14 Days After Application SORVU

Row | SMILES | pest or weed control at 140 g/ha [%]
26 | C=Cc1c(-c2cc(N)c(Cl)c(C(=O)O)n2)ccc(Cl)c1F [Compound 89, 4-Amino-3-chloro-6-(4-chloro-3-fluoro-2-vinylphenyl)picolinic acid] | 0 to 29

Same assay, conditions: post-emergence, 336 h, TRZSS (crop), 70 g ai/ha, 14 days after application, read-out: Visual Growth Reduction (%) 14 Days After Application TRZSS

Row | SMILES | pest or weed control at 70 g/ha [%]
27 | C=Cc1c(-c2cc(N)c(Cl)c(C(=O)O)n2)ccc(Cl)c1F [Compound 89, 4-Amino-3-chloro-6-(4-chloro-3-fluoro-2-vinylphenyl)picolinic acid] | 0 to 29

Same assay, conditions: post-emergence, 336 h, TRZSS (crop), 140 g ai/ha, 14 days after application, read-out: Visual Growth Reduction (%) 14 Days After Application TRZSS

Row | SMILES | pest or weed control at 140 g/ha [%]
28 | C=Cc1c(-c2cc(N)c(Cl)c(C(=O)O)n2)ccc(Cl)c1F [Compound 89, 4-Amino-3-chloro-6-(4-chloro-3-fluoro-2-vinylphenyl)picolinic acid] | 0 to 29

Same assay, conditions: post-emergence, 336 h, ZEAMX: maize, corn (Zea mays), 70 g ai/ha, 14 days after application, read-out: Visual Growth Reduction (%) 14 Days After Application ZEAMX

Row | SMILES | pest or weed control at 70 g/ha [%]
29 | C=Cc1c(-c2cc(N)c(Cl)c(C(=O)O)n2)ccc(Cl)c1F [Compound 89, 4-Amino-3-chloro-6-(4-chloro-3-fluoro-2-vinylphenyl)picolinic acid] | 0 to 29

Same assay, conditions: post-emergence, 336 h, ZEAMX: maize, corn (Zea mays), 140 g ai/ha, 14 days after application, read-out: Visual Growth Reduction (%) 14 Days After Application ZEAMX

Row | SMILES | pest or weed control at 140 g/ha [%]
30 | C=Cc1c(-c2cc(N)c(Cl)c(C(=O)O)n2)ccc(Cl)c1F [Compound 89, 4-Amino-3-chloro-6-(4-chloro-3-fluoro-2-vinylphenyl)picolinic acid] | 0 to 29
